In ChEMBL document CHEMBL1149819, “Synthesis and in vivo anti-mutagenic activity of novel melatonin derivatives” (2008):

Experiments:
Conditions in all cases: route intragastric
Mus musculus [1] = assay: Antimutagenic activity in mouse brain assessed as peroxidase activity per microgram of tissue at 10 mg/kg administered intragastrically for 1 week; type: functional
Mus musculus [2] = assay: Antimutagenic activity against cyclophosphamide-induced mutagenicity in mouse kidney assessed as protein level per gram of tissue at 10 mg/kg administered intragastrically for 1 week; type: functional
Mus musculus [3] = assay: Antimutagenic activity in mouse brain assessed as cholinesterase activity per microgram of tissue at 10 mg/kg administered intragastrically for 1 week; type: functional
Mus musculus [4] = assay: Antimutagenic activity against cyclophosphamide-induced mutagenicity in mouse brain assessed as peroxidase activity per microgram of tissue at 10 mg/kg administered intragastrically for 1 week; type: functional
Mus musculus [5] = assay: Antimutagenic activity in Albino mouse kidney assessed as DNA level per gram of tissue at 10 mg/kg administered intragastrically for 1 week; type: functional
Mus musculus [6] = assay: Antimutagenic activity against cyclophosphamide-induced mutagenicity in Albino mouse brain assessed as RNA level per gram of tissue at 10 mg/kg administered intragastrically for 1 week; type: functional
Mus musculus [7] = assay: Antimutagenic activity in mouse kidney assessed as protein level per gram of tissue at 10 mg/kg administered intragastrically for 1 week; type: functional
Mus musculus [8] = assay: Antimutagenic activity in Albino mouse kidney assessed as RNA level per gram of tissue at 10 mg/kg administered intragastrically for 1 week; type: functional
Mus musculus [9] = assay: Antimutagenic activity in mouse brain assessed as protein level per gram of tissue at 10 mg/kg administered intragastrically for 1 week; type: functional
Mus musculus [10] = assay: Antimutagenic activity in Albino mouse brain assessed as RNA level per gram of tissue at 10 mg/kg administered intragastrically for 1 week; type: functional
Mus musculus [11] = assay: Antimutagenic against cyclophosphamide-induced mutagenicity in Albino mouse liver assessed as DNA level per gram of tissue at 10 mg/kg administered intragastrically for 1 week; type: functional
Mus musculus [12] = assay: Antimutagenic activity against cyclophosphamide-induced mutagenicity in Albino mouse kidney assessed as RNA level per gram of tissue at 10 mg/kg administered intragastrically for 1 week; type: functional
Mus musculus [13] = assay: Inhibition of cyclophosphamide-induced increase in micronuclei/polychromatic erythrocytes count in mouse at 10 mg/kg administered intragastrically for 1 week by micronuclei assay; type: functional; set-up: scale not given: the % may be the effect or the level left
Mus musculus [14] = assay: Antimutagenic activity in Albino mouse testes assessed as DNA level per gram of tissue at 10 mg/kg administered intragastrically for 1 week; type: functional, Testis
Mus musculus [15] = assay: Antimutagenic activity against cyclophosphamide-induced mutagenicity in Albino mouse testes assessed as RNA level per gram of tissue at 10 mg/kg administered intragastrically for 1 week; type: functional, Testis
Mus musculus [16] = assay: Antimutagenic activity against cyclophosphamide-induced mutagenicity in Albino mouse liver assessed as RNA level per gram of tissue at 10 mg/kg administered intragastrically for 1 week; type: functional
Mus musculus [17] = assay: Antimutagenic activity against cyclophosphamide-induced mutagenicity in Albino mouse kidney assessed as DNA level per gram of tissue at 10 mg/kg administered intragastrically for 1 week; type: functional
Mus musculus [18] = assay: Antimutagenic activity in mouse liver assessed as protein level per gram of tissue at 10 mg/kg administered intragastrically for 1 week; type: functional
Mus musculus [19] = assay: Antimutagenic activity in Albino mouse liver assessed as RNA level per gram of tissue at 10 mg/kg administered intragastrically for 1 week; type: functional
Mus musculus [20] = assay: Antimutagenic activity against cyclophosphamide-induced mutagenicity in mouse brain assessed as protein level per gram of tissue at 10 mg/kg administered intragastrically for 1 week; type: functional
Mus musculus [21] = assay: Antimutagenic activity against cyclophosphamide-induced mutagenicity in Albino mouse testes assessed as DNA level per gram of tissue at 10 mg/kg administered intragastrically for 1 week; type: functional, Testis
Mus musculus [22] = assay: Antimutagenic activity in Albino mouse testes assessed as RNA level per gram of tissue at 10 mg/kg administered intragastrically for 1 week; type: functional, Testis
Mus musculus [23] = assay: Antimutagenic activity against cyclophosphamide-induced mutagenicity in mouse liver assessed as protein level per gram of tissue at 10 mg/kg administered intragastrically for 1 week; type: functional
Mus musculus [24] = assay: Antimutagenic activity against cyclophosphamide-induced mutagenicity in Albino mouse brain assessed as DNA level per gram of tissue at 10 mg/kg administered intragastrically for 1 week; type: functional
Mus musculus [25] = assay: Antimutagenic activity against cyclophosphamide-induced mutagenicity in mouse testes assessed as protein level per gram of tissue at 10 mg/kg administered intragastrically for 1 week; type: functional, Testis
Mus musculus [26] = assay: Antimutagenic activity in Albino mouse liver assessed as DNA level per gram of tissue at 10 mg/kg administered intragastrically for 1 week; type: functional
Mus musculus [27] = assay: Antimutagenic activity against cyclophosphamide-induced mutagenicity in mouse brain assessed as cholinesterase activity per microgram of tissue at 10 mg/kg administered intragastrically for 1 week; type: functional
Mus musculus [28] = assay: Antimutagenic activity in Albino mouse brain assessed as DNA level per gram of tissue at 10 mg/kg administered intragastrically for 1 week; type: functional

COc1ccc2[nH]cc(CCNC(C)=O)c2c1 [MELATONIN]
Activity (Mus musculus [1]): 3.38 U/min | Activity (Mus musculus [2]): 4.42 g | Activity (Mus musculus [3]): 3.13 U | Activity (Mus musculus [4]): 2.54 U/min | Activity (Mus musculus [5]): 0.25 mg | Activity (Mus musculus [6]): 0.15 mg | Activity (Mus musculus [7]): 6.39 g | Activity (Mus musculus [8]): 0.38 mg | Activity (Mus musculus [9]): 2.48 g | Activity (Mus musculus [10]): 0.18 mg | Activity (Mus musculus [11]): 0.23 mg | Activity (Mus musculus [12]): 0.19 mg | Activity (Mus musculus [13]): 41% | Activity (Mus musculus [14]): 0.26 mg | Activity (Mus musculus [15]): 0.17 mg | Activity (Mus musculus [16]): 0.28 mg | Activity (Mus musculus [17]): 0.24 mg | Activity (Mus musculus [18]): 8.42 g | Activity (Mus musculus [19]): 0.44 mg | Activity (Mus musculus [20]): 2.37 g | Activity (Mus musculus [21]): 0.23 mg | Activity (Mus musculus [22]): 0.34 mg | Activity (Mus musculus [23]): 8.42 g | Activity (Mus musculus [24]): 0.21 mg | Activity (Mus musculus [25]): 2.96 g | Activity (Mus musculus [26]): 0.26 mg | Activity (Mus musculus [27]): 2.63 U | Activity (Mus musculus [28]): 0.32 mg
